In patent US9050378B2, “N2S2 chelate-targeting ligand conjugates” (Board of Regents, The University of Texas System, priority 2003, dated 2015):

Key:
[1] = In vitro cell culture of ^99mTc-EC-DG with or without transition chelators; assay type: cell-based
Excerpt: It may also be important to include an antioxidant and a transition chelator in the composition to prevent oxidation of the ethylenedicysteine. For example, the antioxidant may be vitamin C (ascorbic acid). However, other antioxidants known to those of ordinary skill in the art, such as tocopherol, pyridoxine, thiamine, or rutin, may also be used. Any transition chelator known to those of ordinary skill in the art may be used in conjunction with the present invention. Examples of transition chelators include glucoheptonate, gluconate, glucarate, citrate, and tartarate.

[2] = tested on: A549 human lung cancer tumor; test: Tissue distribution in lung tumor-bearing nude mice; assay type: in vivo
Experimental: Female athymic nude mice (NCr-nu/nu, NCI, Bethasda, Md.) were inoculated with human lung cancer cells (A549 tumor cell line, 3×10^6 cells/mouse, intramuscular) by one author in the mid-dorsal region. After the tumor reached 6 mm, separate biodistribution studies using ^99mTc-EC-DG and 18F-FDG were conducted. Each received ^99mTc-EC-DG or 18F-FDG intravenously (n=3/time point). The injection activity was 1-3 μCi/mouse. The injected mass of ^99mTc-EC-DG was 0.2 mg/rodent.

stability with or without transition chelators (gluconate and glucarate) [1]: does not interfere with the stability
Tumor/Blood ([2]; 30 min): 0.499 ± 0.022
Tumor/Lung ([2]; 30 min): 0.769 ± 0.047
Tumor/Muscle ([2]; 30 min): 3.352 ± 0.749
Tumor/Blood ([2]; 2 h): 0.424 ± 0.022
Tumor/Lung ([2]; 2 h): 0.587 ± 0.046
Tumor/Muscle ([2]; 2 h): 2.754 ± 0.120
Tumor/Blood ([2]; 4 h): 0.502 ± 0.120
Tumor/Lung ([2]; 4 h): 0.640 ± 0.120
Tumor/Muscle ([2]; 4 h): 2.795 ± 0.982
SMILES: O=C(N[C@H]1C(O)O[C@H](CO)[C@@H](O)[C@@H]1O)[C@@H]1C[S][Tc]23(=[O])[S]C[C@@H](C(=O)N[C@H]4C(O)O[C@H](CO)[C@@H](O)[C@@H]4O)[N]2CC[N]13 (some centres unmarked) [^99mTc-EC-DG]
Blood ([2]; 30 min): 1.607 ± 0.389 % of injected dose per gram of tissue weight
Brain ([2]; 30 min): 0.058 ± 0.008 % of injected dose per gram of tissue weight
Heart ([2]; 30 min): 0.611 ± 0.193 % of injected dose per gram of tissue weight
Intestine ([2]; 30 min): 0.510 ± 0.093 % of injected dose per gram of tissue weight
Kidney ([2]; 30 min): 6.726 ± 1.842 % of injected dose per gram of tissue weight
Liver ([2]; 30 min): 5.674 ± 2.089 % of injected dose per gram of tissue weight
Lung ([2]; 30 min): 1.048 ± 0.259 % of injected dose per gram of tissue weight
Muscle ([2]; 30 min): 0.264 ± 0.072 % of injected dose per gram of tissue weight
Spleen ([2]; 30 min): 3.240 ± 1.709 % of injected dose per gram of tissue weight
Stomach ([2]; 30 min): 0.540 ± 0.113 % of injected dose per gram of tissue weight
Thyroid ([2]; 30 min): 0.929 ± 0.212 % of injected dose per gram of tissue weight
Tumor ([2]; 30 min): 0.787 ± 0.163 % of injected dose per gram of tissue weight
Blood ([2]; 2 h): 0.977 ± 0.267 % of injected dose per gram of tissue weight
Brain ([2]; 2 h): 0.042 ± 0.006 % of injected dose per gram of tissue weight
Heart ([2]; 2 h): 0.336 ± 0.080 % of injected dose per gram of tissue weight
Intestine ([2]; 2 h): 0.417 ± 0.110 % of injected dose per gram of tissue weight
Kidney ([2]; 2 h): 5.687 ± 1.540 % of injected dose per gram of tissue weight
Liver ([2]; 2 h): 5.807 ± 1.708 % of injected dose per gram of tissue weight
Lung ([2]; 2 h): 0.721 ± 0.210 % of injected dose per gram of tissue weight
Muscle ([2]; 2 h): 0.148 ± 0.039 % of injected dose per gram of tissue weight
Spleen ([2]; 2 h): 4.205 ± 1.374 % of injected dose per gram of tissue weight
Stomach ([2]; 2 h): 0.439 ± 0.138 % of injected dose per gram of tissue weight
Thyroid ([2]; 2 h): 0.665 ± 0.207 % of injected dose per gram of tissue weight
Tumor ([2]; 2 h): 0.415 ± 0.123 % of injected dose per gram of tissue weight
Blood ([2]; 4 h): 0.787 ± 0.152 % of injected dose per gram of tissue weight
Brain ([2]; 4 h): 0.042 ± 0.006 % of injected dose per gram of tissue weight
Heart ([2]; 4 h): 0.318 ± 0.071 % of injected dose per gram of tissue weight
Intestine ([2]; 4 h): 0.374 ± 0.073 % of injected dose per gram of tissue weight
Kidney ([2]; 4 h): 4.318 ± 0.890 % of injected dose per gram of tissue weight
Liver ([2]; 4 h): 6.656 ± 1.786 % of injected dose per gram of tissue weight
Lung ([2]; 4 h): 0.606 ± 0.128 % of injected dose per gram of tissue weight
Muscle ([2]; 4 h): 0.147 ± 0.022 % of injected dose per gram of tissue weight
Spleen ([2]; 4 h): 5.933 ± 3.194 % of injected dose per gram of tissue weight
Stomach ([2]; 4 h): 0.541 ± 0.119 % of injected dose per gram of tissue weight
Thyroid ([2]; 4 h): 0.692 ± 0.119 % of injected dose per gram of tissue weight
Tumor ([2]; 4 h): 0.414 ± 0.161 % of injected dose per gram of tissue weight
tumor-to-tissue ratios, ^99mTc-EC-DG versus 18F-FDG ([2]; A549 nude mice, iv): higher tumor/muscle and tumor/brain ratios as a function of time
